Settings: 283.15 K, Liquid, Vibrating tube method

CCCCCCCCCC [decane]
Settings | mass density [kg/m3]
26776 kPa | 755.1
26808 kPa | 755.2
26844 kPa | 755.1
26869 kPa | 755.2
26895 kPa | 755.3
26931 kPa | 755.3
26952 kPa | 755.2
26974 kPa | 755.3
27007 kPa | 755.3
27036 kPa | 755.3
27058 kPa | 755.3
27090 kPa | 755.5
27112 kPa | 755.3
27145 kPa | 755.4
27171 kPa | 755.4
27193 kPa | 755.5
27219 kPa | 755.3
27242 kPa | 755.5
27268 kPa | 755.6
27295 kPa | 755.5
27321 kPa | 755.4
27347 kPa | 755.6
27373 kPa | 755.5
27611 kPa | 755.7
27638 kPa | 755.7
27665 kPa | 755.8
27700 kPa | 755.7
27726 kPa | 755.8
27749 kPa | 755.7
27784 kPa | 755.8
27818 kPa | 755.8
27842 kPa | 755.9
27876 kPa | 755.9
27908 kPa | 755.9
27935 kPa | 755.9
27963 kPa | 755.9
27990 kPa | 755.9
28021 kPa | 755.9
28049 kPa | 755.9
28076 kPa | 756
28113 kPa | 756
28134 kPa | 756
28171 kPa | 756
28206 kPa | 756
28227 kPa | 756
28251 kPa | 756.1
28288 kPa | 756.1
28322 kPa | 756.2
28344 kPa | 756.1
28377 kPa | 756
28409 kPa | 756.2
28431 kPa | 756.3
28463 kPa | 756.1
28486 kPa | 756.2
28515 kPa | 756.3
28541 kPa | 756.2
28571 kPa | 756.3
28597 kPa | 756.3
28616 kPa | 756.2
28645 kPa | 756.3
28678 kPa | 756.4
28701 kPa | 756.3
28728 kPa | 756.4
28766 kPa | 756.4
28792 kPa | 756.5
28822 kPa | 756.4
28845 kPa | 756.5
28872 kPa | 756.5
28899 kPa | 756.5
28925 kPa | 756.5
28952 kPa | 756.4
28987 kPa | 756.5
29014 kPa | 756.5
29040 kPa | 756.5
29067 kPa | 756.5
29114 kPa | 756.7
29141 kPa | 756.6
29203 kPa | 756.7
29251 kPa | 756.7
29278 kPa | 756.6
29309 kPa | 756.6
29341 kPa | 756.7
29368 kPa | 756.7
29392 kPa | 756.6
29424 kPa | 756.7
29460 kPa | 756.7
29484 kPa | 756.8
29508 kPa | 756.7
29555 kPa | 756.8
29591 kPa | 756.8
29652 kPa | 756.9
29688 kPa | 757
30170 kPa | 757.2
30200 kPa | 757.3
30225 kPa | 757.3
30263 kPa | 757.3
30301 kPa | 757.1
30327 kPa | 757.2
30365 kPa | 757.4
30399 kPa | 757.3
30425 kPa | 757.3
30461 kPa | 757.4
30487 kPa | 757.4
30512 kPa | 757.4
30539 kPa | 757.4
30561 kPa | 757.4
30603 kPa | 757.4
30638 kPa | 757.4
30664 kPa | 757.4
30704 kPa | 757.5
30740 kPa | 757.4
30771 kPa | 757.5
30836 kPa | 757.5
30867 kPa | 757.5
30893 kPa | 757.6
30975 kPa | 757.6
31003 kPa | 757.6
31031 kPa | 757.7
31062 kPa | 757.8
31099 kPa | 757.6
31136 kPa | 757.6
31162 kPa | 757.7
31187 kPa | 757.9
31218 kPa | 757.7
31253 kPa | 757.8
31284 kPa | 757.9
31310 kPa | 757.9
31337 kPa | 757.9
31363 kPa | 757.8
31377 kPa | 757.9
31402 kPa | 757.9
31424 kPa | 758
31441 kPa | 758
31463 kPa | 758
31492 kPa | 758
31509 kPa | 758
31566 kPa | 757.9

From the NIST ThermoML archive (doi:10.1021/je800110r)
